# Assay results reported in US10442931B2, “Dye compound, composition comprising dye compound, and display device using dye compound” (Samsung Display Co. Ltd., priority 2017, dated 2019).
# Legend:
# [1] = Maximum absorption wavelength band and absorbance, Shimadzu UV-1800 UV-vis spectrophotometer; format: physicochemical
# Method: (§1) The maximum absorption wavelength bands and absorbance were measured using Shimadzu UV-1800 UV-vis. Spectrophotometer. Whether having lipid solubility was determined to be lipid soluble when the solubility of the compounds in MEK, PGMEA, cyclo-hexanone, or toluene was 1 wt % or more.
# [2] = Whether having lipid solubility (solubility in MEK, PGMEA, cyclo-hexanone, or toluene); format: physicochemical
# Method: as §1
Maximum absorption wavelength band [1],SMILES,Whether having lipid solubility [2]
≥ 600- nm,CCCCN(C)c1ccc(/N=N/c2ncc(-c3cnc(/N=N/c4ccc(N(C)CCCC)cc4)s3)s2)cc1 [Compound B117],"∘ (determined to be lipid soluble when the solubility of the compounds in MEK, PGMEA, cyclo-hexanone, or toluene was 1 wt % or more)"
≥ 600- nm,CCN(CC)c1ccc(/N=N/c2ncc(-c3cnc(/N=N/c4ccc(N(CC)CC)cc4O)s3)s2)c(O)c1 [Compound B123],"∘ (determined to be lipid soluble when the solubility of the compounds in MEK, PGMEA, cyclo-hexanone, or toluene was 1 wt % or more)"
≥ 600- nm,Cc1c(O)c(/N=N/c2ncc(-c3cnc(/N=N/c4cc5ccc(N)cc5c(C)c4O)s3)s2)cc2ccc(N)cc12 [Compound B127],"∘ (determined to be lipid soluble when the solubility of the compounds in MEK, PGMEA, cyclo-hexanone, or toluene was 1 wt % or more)"
400-500 nm,CCCCOc1ccc(/N=N/c2ccc(/C=C/c3ccc(/N=N/c4ccc(OCCCC)cc4)cc3)cc2)cc1 [Compound C103],"∘ (determined to be lipid soluble when the solubility of the compounds in MEK, PGMEA, cyclo-hexanone, or toluene was 1 wt % or more)"
500-600 nm,Nc1ccc(/N=N/c2ccc(-c3ccc(-c4ccc(/N=N/c5ccc(N)cc5)cc4)cc3)cc2)cc1 [Compound D110],"∘ (determined to be lipid soluble when the solubility of the compounds in MEK, PGMEA, cyclo-hexanone, or toluene was 1 wt % or more)"

# More lines, now with the values behind:
SMILES,Maximum absorption wavelength band [1],Whether having lipid solubility [2]
CCCCOc1ccc(/N=N/c2ccc(N3CCN(c4ccc(/N=N/c5ccc(OCCCC)cc5)cc4)CC3)cc2)cc1 [Compound A124],500-600 nm,"∘ (determined to be lipid soluble when the solubility of the compounds in MEK, PGMEA, cyclo-hexanone, or toluene was 1 wt % or more)"
CCN(CC)c1ccc(/N=N/c2ccc(N3CCN(c4ccc(/N=N/c5ccc(N(CC)CC)cc5O)cc4)CC3)cc2)c(O)c1 [Compound A132],500-600 nm,"∘ (determined to be lipid soluble when the solubility of the compounds in MEK, PGMEA, cyclo-hexanone, or toluene was 1 wt % or more)"
CCCCN(C)c1ccc(/N=N/c2ccc(N3CCN(c4ccc(/N=N/c5ccc(N(C)CCCC)cc5)cc4)CC3)cc2)cc1 [Compound A133],500-600 nm,"∘ (determined to be lipid soluble when the solubility of the compounds in MEK, PGMEA, cyclo-hexanone, or toluene was 1 wt % or more)"
C=C(C)C(=O)N(CC)c1ccc(/N=N/c2ccc(N3CCN(c4ccc(/N=N/c5ccc(N(CC)C(=O)C(=C)C)cc5C)cc4)CC3)cc2)c(C)c1 [Compound A138],500-600 nm,"∘ (determined to be lipid soluble when the solubility of the compounds in MEK, PGMEA, cyclo-hexanone, or toluene was 1 wt % or more)"
